Target: T1, Bombyx mori EcR (VP16 fusion, CVBE switch construct) (Bombyx mori, UniProt P49881)
T1 sequence (P49881 86-606): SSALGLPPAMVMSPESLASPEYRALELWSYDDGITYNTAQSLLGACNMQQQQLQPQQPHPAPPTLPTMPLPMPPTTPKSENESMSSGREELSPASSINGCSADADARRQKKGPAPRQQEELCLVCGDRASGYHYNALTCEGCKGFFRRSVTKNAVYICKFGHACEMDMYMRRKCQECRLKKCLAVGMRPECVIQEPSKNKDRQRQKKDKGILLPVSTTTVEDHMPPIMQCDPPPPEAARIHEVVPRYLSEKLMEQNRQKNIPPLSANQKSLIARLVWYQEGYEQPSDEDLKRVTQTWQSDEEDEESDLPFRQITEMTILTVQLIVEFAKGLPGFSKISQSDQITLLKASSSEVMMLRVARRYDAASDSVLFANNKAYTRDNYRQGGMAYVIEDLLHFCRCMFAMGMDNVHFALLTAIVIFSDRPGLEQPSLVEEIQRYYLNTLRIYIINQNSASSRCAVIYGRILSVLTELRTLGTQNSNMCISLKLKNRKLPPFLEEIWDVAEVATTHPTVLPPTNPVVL
T1 sequence (P19793 1-462 partner): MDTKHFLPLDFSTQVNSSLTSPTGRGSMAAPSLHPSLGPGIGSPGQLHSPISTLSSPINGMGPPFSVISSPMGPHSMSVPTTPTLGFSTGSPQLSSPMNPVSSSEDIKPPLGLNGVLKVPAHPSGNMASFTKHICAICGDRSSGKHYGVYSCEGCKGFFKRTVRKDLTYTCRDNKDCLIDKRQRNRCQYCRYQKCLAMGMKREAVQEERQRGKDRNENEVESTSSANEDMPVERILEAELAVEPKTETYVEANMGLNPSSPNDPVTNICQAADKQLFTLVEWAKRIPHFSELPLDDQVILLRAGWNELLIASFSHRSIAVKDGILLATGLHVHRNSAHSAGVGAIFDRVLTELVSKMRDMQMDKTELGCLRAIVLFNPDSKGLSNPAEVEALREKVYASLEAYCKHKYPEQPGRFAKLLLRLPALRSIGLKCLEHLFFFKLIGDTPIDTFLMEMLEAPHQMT
Assay: Z3 Assay (HEK-293 cells with CVBE and 6XEcRE LacZ, β-galactosidase reporter)
Conditions: for Fold Induction, Z3 Assay, 33 uM: 33 uM ligand; for Fold Induction, Z3 Assay, 33 uM / Fold Induction, Z3 Assay, 3.3 uM: ligand treated / DMSO treated cells; for Fold Induction, Z3 Assay, 33 uM / EC50 / Fold Induction, Z3 Assay, 3.3 uM: average of two wells; for EC50: read-out: Z3 assay EC50, β-galactosidase reporter; for EC50 / Z3 assay Rel Max FI: HEK-293 Z3 cells; for Fold Induction, Z3 Assay, 3.3 uM: 3.3 uM ligand; for Z3 assay Rel Max FI: maximum fold induction at any concentration relative to that of GS-E ligand

Compound	Fold Induction, Z3 Assay, 33 uM	EC50	Fold Induction, Z3 Assay, 3.3 uM	Z3 assay Rel Max FI
COc1cccc(C(=O)NN(C(=O)c2cccnc2Cl)C(C)(C)C)c1C [RG-100127]	245	4680 nM		
COc1ccccc1C(=O)N(NC(=O)c1ccc2c(c1C)OCOC2)C(C)(C)C [RG-100216]	398	1780 nM		
COc1cc(C(=O)N(NC(=O)c2cccc(OC)c2C)C(C)(C)C)ccc1C [RG-100768]	425	214 nM	1246	1.129
COc1cc(C)ccc1C(=O)N(NC(=O)c1cccc(OC)c1C)C(C)(C)C [RG-100769]	542	219 nM	1096	1.109
CCc1c(OC)cccc1C(=O)NN(C(=O)c1cc(OC)cc(OC)c1)C(C)(C)C [RG-100778]	365	513 nM		1.000
CC(C)(C)N(NC(=O)c1c(F)cccc1F)C(=O)c1cc(Cl)cc(Cl)c1 [RG-100801]	153	891 nM		
CC(=O)c1cccc(C(=O)NN(C(=O)c2cc(C)cc(C)c2)C(C)(C)C)c1C [RG-100814]	1279	1150 nM	410	
COc1cc(Cl)ccc1C(=O)N(NC(=O)c1cccc(OC)c1C)C(C)(C)C [RG-100848]	26	240 nM	885	0.996
Cc1cc(C)cc(C(=O)N(NC(=O)c2ccc(CC#N)cc2)C(C)(C)C)c1 [RG-100875]	1081	2040 nM	1006	0.818
COc1cccc(C(=O)NN(C(=O)c2ccc(Cl)cc2F)C(C)(C)C)c1C [RG-100929]	490	631 nM		
CCc1ccc(C(=O)NN(C(=O)c2ccccc2[N+](=O)[O-])C(C)(C)C)cc1 [RG-101013]	846	1480 nM	1039	0.720
Cc1cc(C)cc(C(=O)N(NC(=O)c2ccc3c(c2)COCO3)C(C)(C)C)c1 [RG-101016]	394	2000 nM		
CCc1c(C(=O)NN(C(=O)c2cccc(C)c2)C(C)(C)C)ccc2c1OCCO2 [RG-101036]	404	54 nM	767	1.049
CC(C)(C)N(NC(=O)c1ccc2c(c1)OCO2)C(=O)c1ccc(F)cc1Cl [RG-101048]	283	19100 nM		
COc1ccc(C(=O)NN(C(=O)c2ccc(F)cc2Cl)C(C)(C)C)cc1 [RG-101057]	930	4470 nM	632	0.697
Cc1cc(C)cc(C(=O)N(NC(=O)c2cc3c(cc2C)OCO3)C(C)(C)C)c1 [RG-101088]	302	4070 nM		
Cc1cc(C)cc(C(=O)N(NC(=O)c2cc3c(cc2Cl)OCO3)C(C)(C)C)c1 [RG-101171]	268	3240 nM		
CCc1c(OC)cccc1C(=O)NN(C(=O)c1ccc(Cl)cc1OC)C(C)(C)C [RG-101218]	398	316 nM	886	0.998

Compound	Fold Induction, Z3 Assay, 33 uM	EC50	Fold Induction, Z3 Assay, 3.3 uM	Z3 assay Rel Max FI
COc1cccc(C(=O)NN(C(=O)c2cc(C)ccc2Cl)C(C)(C)C)c1Cl [RG-101248]	375	1440 nM		
Cc1cc(C)cc(C(=O)N(NC(=O)c2ccc3c(c2Br)OCCO3)C(C)(C)C)c1 [RG-101340]	432	234 nM	866	1.126
COc1cccc(C(=O)NN(C(=O)c2cc(C)cc(Br)c2)C(C)(C)C)c1C [RG-101353]	439	107 nM	530	1.078
COc1cccc(C(=O)NN(C(=O)c2cc(Cl)cc(Br)c2)C(C)(C)C)c1C [RG-101408]	398	148 nM	780	1.118
Cc1cc(C)cc(C(=O)N(NC(=O)c2ccc3c(c2)OC(C)O3)C(C)(C)C)c1 (stereo not shown) [RG-101511]	487	468 nM	947	1.122
COc1cc(C(=O)NN(C(=O)c2cc(C)cc(C)c2)C(C)(C)C)ccc1C [RG-101585]	330	4900 nM		
CCc1c(C(=O)NN(C(=O)c2cc(C)cc(C)c2)C(C)(C)C)ccc2c1OC(C)O2 (stereo not shown) [RG-101659]	876	214 nM	954	
CCc1cccc(C(=O)NN(C(=O)c2cc(C)cc(C)c2)C(C)(C)C)c1C [RG-101691]	1089	174 nM	654	1.068
Cc1cc(C)cc(C(=O)N(NC(=O)c2cccc(OC(F)(F)F)c2C)C(C)(C)C)c1 [RG-101692]	860	309 nM	435	0.975
CCc1ccc(C(=O)NN(C(=O)c2cc(C)cc(Cl)c2)C(C)(C)C)cc1 [RG-101774]	429	155 nM	631	0.943
CCc1ccc(C(=O)NN(C(=O)c2cc(C)c(C)c(Cl)c2)C(C)(C)C)cc1 [RG-101863]	374	257 nM	832	0.953
CCc1ccc(C(=O)NN(C(=O)c2cc(C)cc(C)c2)C(C)(C)C)cc1Cl [RG-101864]	494	245 nM	796	1.075
Cc1cc(C)cc(C(=O)N(NC(=O)c2ccc3c(c2)CCCC3)C(C)(C)C)c1 [RG-101887]	334	257 nM	1004	0.930
C=Cc1c(OC)cccc1C(=O)NN(C(=O)c1cc(C)cc(C)c1)C(C)(C)C [RG-102021]		513 nM	417	0.920
CCc1ccc(C(=O)NN(C(=O)c2ccccc2CC)C(C)(C)C)cc1 [RG-102592]	574	3890 nM	746	0.699
CCc1ccc(C(=O)NN(C(=O)c2cc(C)cc(C)c2)C(C)C(C)(C)C)cc1 (stereo not shown) [RG-103451]	118	83 nM	67	1.054
COCc1c(OC)cccc1C(=O)NN(C(=O)c1cc(C)cc(C)c1)C(C)(C)C [RG-115117]		3930 nM	7	0.36
